Laboratory results taken from article PMC11449324, “Functional comparison of human and murine equilibrative nucleobase transporter 1” (PLOS ONE, 2024).

What was measured:
HEK293-hSLC43A3 cells = experiment: MTT cell viability assay, HEK293-hSLC43A3; type: cell-based, human; details: for EC50: Homo sapiens, first-phase EC50 where biphasic
Method: (§1) Transfected-HEK293, MOLT-4, and L1210 cells were seeded into 24-well plates at a density of 1.1x10^5 cells per well in complete culture medium. […] Medium containing no cells was used to determine spontaneous MTT reduction (background). In transfected-HEK293 cells, media was removed via a vacuum-powered aspirator and replaced with 150 μL of Dulbecco’s phosphate buffered saline (DPBS—137 mM NaCl, 2.7 mM KCl, 6.3 mM Na2HPO4, 1.5 mM KH2PO4, 0.5 mM MgCl2, 0.9 mM CaCl2, pH 7.4) containing MTT (1 mg/mL) for 90 minutes at 37°C. In MOLT-4 and L1210, cell suspension was transferred to 1.5 mL microcentrifuge tubes and centrifuged for 10 minutes at 3000 rcf. Following centrifugation, media was removed via gentle pipetting and replaced with 150 μL of DPBS containing MTT (1 mg/mL) for 90 minutes at 37°C. Microcentrifuge tubes were centrifuged again for 15 minutes at 23,500 rcf, and then DPBS containing MTT was removed via a vacuum-powered aspirator. The resultant formazan crystals were solubilized in 500 μL of DMSO and transferred to a 96-well plate in 200 μL duplicates. Absorbance was measured at 570 nm, in a SpectraMax® i3x Multi-Mode Detection Platform (Molecular Devices, San Jose, CA). After background subtraction, % cell viability was calculated as the ratio of absorbance in the presence of test compound to that measured with vehicle alone (X 100).

ENBT1 = details: previous findings ref 14; cited from earlier work
HEK293-mslc43a3 cells = experiment: MTT cell viability assay, HEK293-mslc43a3; type: cell-based, human; details: for EC50: Homo sapiens, first-phase EC50 where biphasic
Method: as §1

HEK293-EV cells = experiment: MTT cell viability assay, HEK293-EV; type: cell-based, human; details: 48 h; for EC50: Homo sapiens, first-phase EC50 where biphasic
Method: as §1

[1] = substrate: Nc1ncnc2nc[nH]c12; experiment: Radiolabelled substrate uptake (oil-stop, 2 s) in HEK293-hSLC43A3 cells; type: cell-based, human; details: other: HEK293-hSLC43A3 minus HEK293-EV, 2 seconds, room temperature, 10 μM dipyridamole; pH 7.4
Method: (§2) Harvested cells were suspended in nominally sodium-free N-methyl-D-glucamine (NMG) buffer (140 mM NMG, 5 mM KCl, 4.2 mM KHCO3, 0.36 mM K2HPO4, 0.44 mM KH2PO4, 0.5 mM MgCl2, 1.3 mM CaCl2, 10 mM HEPES, pH 7.4), to minimize potential contribution of sodium-dependent concentrative nucleoside transporter-mediated uptake. Additionally, cells were incubated for 15 minutes at room temperature with 10 μM dipyridamole (DY), an equilibrative nucleoside transporter (ENT) inhibitor, to block equilibrative nucleoside transporter–mediated uptake. The substrate uptake assay was initiated by adding 250 μL cell suspension to 250 μL [^3H] labeled substrate, layered over 21:4 silicone:mineral oil (200 μL) in 1.5 mL microcentrifuge tubes (conducted at room temperature). The uptake reaction was terminated after 2 seconds by centrifugation of the cells through the oil layer at ~10,000 g. […] The resulting cell pellet was digested in 250 μL 1 M NaOH overnight (~16 hours), with 220 μL aliquots of digested cells assessed for radioactive content using standard liquid scintillation counting techniques in a Beckman Coulter LS6500 scintillation system (Brea, CA).
(§3) In transfected-HEK293 cell lines, total uptake was defined as uptake of radiolabeled substrate in cells overexpressing recombinant hENBT1 or mENBT1. […] ENBT1-mediated uptake was calculated as total uptake minus the non-mediated uptake. […]

[2] = substrate: Sc1ncnc2nc[nH]c12; experiment: cells, lysate or membranes; details: pH 7.4
[3] = substrate: Nc1ncnc2nc[nH]c12; experiment: Radiolabelled substrate uptake (oil-stop, 2 s) in HEK293-mslc43a3 cells; type: cell-based, mouse; details: other: HEK293-mslc43a3 minus HEK293-EV, 2 seconds, room temperature, 10 μM dipyridamole; pH 7.4
Method: as §2, §3

[4] = other: HEK293-hSLC43A3 minus HEK293-EV, 2 seconds, room temperature, 10 μM dipyridamole
[5] = other: HEK293-mslc43a3 minus HEK293-EV, 2 seconds, room temperature, 10 μM dipyridamole

## CSc1ncnc2nc[nH]c12 [6-MeMP, 6-Methylmercaptopurine]
HEK293-hSLC43A3 cells; HEK293-hSLC43A3, 48 h, MTT
  EC50: 79 ± 2 µM
ENBT1
  effect on 6-MP uptake by ENBT1: inhibited
HEK293-mslc43a3 cells; HEK293-mslc43a3, 48 h, MTT
  EC50: 42 ± 6 µM
HEK293-EV cells
  EC50: 45 ± 7 µM

## Nc1nc2nc[nH]c2c(=S)[nH]1 [6-TG, 6-thioguanine]
HEK293-hSLC43A3 cells; HEK293-hSLC43A3 vs HEK293-EV
  shift in EC50 (increased sensitivity) relative to HEK293-EV cells: 5 fold
HEK293-hSLC43A3 cells; HEK293-hSLC43A3, 48 h, MTT
  EC50: 3.4 ± 0.9 µM
ENBT1
  effect on 6-MP uptake by ENBT1: competitively inhibits
HEK293-mslc43a3 cells; HEK293-mslc43a3 vs HEK293-EV
  shift in EC50 (increased sensitivity) relative to HEK293-EV cells: 5 fold
HEK293-mslc43a3 cells; HEK293-mslc43a3, 48 h, MTT
  EC50: 3.4 ± 1.1 µM
HEK293-EV cells
  EC50: 16 ± 4.3 µM

## O=c1[nH]c(=S)c2[nH]c(=O)[nH]c2[nH]1 [6-TU, 6-Thiouric acid]
HEK293-hSLC43A3 cells; HEK293-hSLC43A3, 48 h, MTT
  effect on cell viability: minimal effect
HEK293-mslc43a3 cells; HEK293-mslc43a3, 48 h, MTT
  effect on cell viability: minimal effect
HEK293-EV cells
  effect on cell viability: minimal effect

B1: hENBT1 (SLC43A3-encoded human ENBT1) (Homo sapiens) (protein)
chain: MAGQGLPLHVATLLTGLLECLGFAGVLFGWPSLVFVFKNEDYFKDLCGPDAGPIGNATGQADCKAQDERFSLIFTLGSFMNNFMTFPTGYIFDRFKTTVARLIAIFFYTTATLIIAFTSAGSAVLLFLAMPMLTIGGILFLITNLQIGNLFGQHRSTIITLYNGAFDSSSAVFLIIKLLYEKGISLRASFIFISVCSTWHVARTFLLMPRGHIPYPLPPNYSYGLCPGNGTTKEEKETAEHENRELQSKEFLSAKEETPGAGQKQELRSFWSYAFSRRFAWHLVWLSVIQLWHYLFIGTLNSLLTNMAGGDMARVSTYTNAFAFTQFGVLCAPWNGLLMDRLKQKYQKEARKTGSSTLAVALCSTVPSLALTSLLCLGFALCASVPILPLQYLTFILQVISRSFLYGSNAAFLTLAFPSEHFGKLFGLVMALSAVVSLLQFPIFTLIKGSLQNDPFYVNVMFMLAILLTFFHPFLVYRECRTWKESPSAIA
notes: Oligonucleotides corresponding to the coding region of SLC43A3 (NM_001278201) or slc43a3 (NM_021398); expressed in transfected cells; HEK293-hSLC43A3
[1]
  Km: 93 ± 24 µM
  Vmax: 56 ± 6 pmol/µL/s
[2]; [4]
  Km: 269 ± 67 µM
  Vmax: 121 ± 16 pmol/µL/s

B2: mENBT1 (slc43a3-encoded mouse ENBT1) (Mus musculus) (protein)
chain: MASKGLPLYLATLLTGLLECIGFAGVLFGWTSLLFVFKAENYFSEPCEQDCLLQSNVTGPSDLKAQDEKFSLIFTLASFMNNFMTFPTGYIFDRFKTTVARLIAIFFYTCATIIIAFTSANTAMLLFLAMPMLAVGGILFLITNLQIGNLFGKHRSTIITLYNGAFDSSSAVFLVIKLLYEQGISLRSSFIFMSVCSVWHIARTFLLMPKGHIPYPLPPNYSYGLCSRFGASKKENKAAEHETKELRSKECLPPKEENSGPEQQQQQEQQQQQQQQQEQHEQHSFRRCALSRRFILHVVWLSIIQLWHYLFIGTLNSLLTKLSGGDKVEVSAYTNAFAITQFFGVLCAPWNGLLMDRLKQKYQKAAKRTGSSSEAVALCSMVPSLALTSLLSLGFALCASIPVMQLQYATFILQVVSRSFLYGCNAAFLTLAFPSEHFGKLFGLVMALSAIVSLLQFPLFKVSPESNAVYVSMGLAIFLTLVHPFLVYRECRAEKTKSSVDA
notes: Oligonucleotides corresponding to the coding region of SLC43A3 (NM_001278201) or slc43a3 (NM_021398); expressed in transfected cells; HEK293-mslc43a3
[3]
  Km: 86 ± 22 µM
  Vmax: 62 ± 6 pmol/µL/s
[2]; [5]
  Km: 253 ± 39 µM
  Vmax: 144 ± 12 pmol/µL/s

B3: endogenous ENBT1 expressed in L1210 cells (Mus musculus) (protein)
chain: MASKGLPLYLATLLTGLLECIGFAGVLFGWTSLLFVFKAENYFSEPCEQDCLLQSNVTGPSDLKAQDEKFSLIFTLASFMNNFMTFPTGYIFDRFKTTVARLIAIFFYTCATIIIAFTSANTAMLLFLAMPMLAVGGILFLITNLQIGNLFGKHRSTIITLYNGAFDSSSAVFLVIKLLYEQGISLRSSFIFMSVCSVWHIARTFLLMPKGHIPYPLPPNYSYGLCSRFGASKKENKAAEHETKELRSKECLPPKEENSGPEQQQQQEQQQQQQQQQEQHEQHSFRRCALSRRFILHVVWLSIIQLWHYLFIGTLNSLLTKLSGGDKVEVSAYTNAFAITQFFGVLCAPWNGLLMDRLKQKYQKAAKRTGSSSEAVALCSMVPSLALTSLLSLGFALCASIPVMQLQYATFILQVVSRSFLYGCNAAFLTLAFPSEHFGKLFGLVMALSAIVSLLQFPLFKVSPESNAVYVSMGLAIFLTLVHPFLVYRECRAEKTKSSVDA
[2]; other: L1210, 2 seconds
  Km: 272 ± 91 µM

B4: endogenous ENBT1 expressed in MOLT-4 cells (Homo sapiens) (protein)
chain: MAGQGLPLHVATLLTGLLECLGFAGVLFGWPSLVFVFKNEDYFKDLCGPDAGPIGNATGQADCKAQDERFSLIFTLGSFMNNFMTFPTGYIFDRFKTTVARLIAIFFYTTATLIIAFTSAGSAVLLFLAMPMLTIGGILFLITNLQIGNLFGQHRSTIITLYNGAFDSSSAVFLIIKLLYEKGISLRASFIFISVCSTWHVARTFLLMPRGHIPYPLPPNYSYGLCPGNGTTKEEKETAEHENRELQSKEFLSAKEETPGAGQKQELRSFWSYAFSRRFAWHLVWLSVIQLWHYLFIGTLNSLLTNMAGGDMARVSTYTNAFAFTQFGVLCAPWNGLLMDRLKQKYQKEARKTGSSTLAVALCSTVPSLALTSLLCLGFALCASVPILPLQYLTFILQVISRSFLYGSNAAFLTLAFPSEHFGKLFGLVMALSAVVSLLQFPIFTLIKGSLQNDPFYVNVMFMLAILLTFFHPFLVYRECRTWKESPSAIA
[2]; other: MOLT-4, 2 seconds
  Km: 115 ± 68 µM
